Values joined by “and” are separate entries in the source; they are usually repeats but may differ in a detail not shown here. Equal values may be shown once. Read-outs that look alike come from different tables or passages of the source.
Assays:
Assay type in all cases: cell-based
[1] = test system: pERK/ERK in MIA PaCa-2 cells; experiment: Western blot of MAPK signaling output (pERK/ERK); details: for normalized pERK/ERK ratio %: MIA PaCa-2 + EGF
[2] = test system: K-RasG12V (Rluc8-/GFP2-tagged) in HEK-293 EBNA cells; experiment: K-RasG12V nanoclustering-BRET assay; details: for K-RasG12V BRET: compounds 20 μM, FTI-277 1 μM, OphA 2.5 μM, 24 h
[3] = test system: H-RasG12V (Rluc8-/GFP2-tagged) in HEK-293 EBNA cells; experiment: H-RasG12V nanoclustering-BRET assay; details: for H-RasG12V BRET: compounds 20 μM, FTI-277 1 μM, OphA 2.5 μM, 24 h
[4] = test system: MDA-MB-231 cells; experiment: 2D cell viability assay (alamarBlue), MDA-MB-231; details: MDA-MB-231, 72 h
[5] = test system: MIA PaCa-2 cells; experiment: 2D cell viability assay (alamarBlue), MIA PaCa-2; details: MIA PaCa-2, 72 h
[6] = test system: HEK-293 EBNA cells; experiment: 2D cell viability assay (alamarBlue), HEK-293 EBNA; details: 72 h
[7] = test system: MDA-MB-231 cells; experiment: Flow cytometry-based apoptosis assay (Annexin V-FITC / 7-AAD); details: DT-061 10 μM, calmidazolium 5 μM or combination, 24 h
Method: MDA-MB-231 cells were grown for 24 h in complete RPMI medium. The next day the cells were treated with inhibitors for 24 h. […] The cells were labelled using the Annexin V-FITC / 7-AAD apoptosis-detection kit (Beckman-Coulter, cat. no. B60224-AB) according to the manufacturer’s instruction.
(§1) Negative values (shaded red) indicate sensitivity of the cell line proliferation to the knockdown of shown genes, whereas positive scores (shaded blue) indicate insensitivity. (B) IC50 values for indicated compounds in Ras pathway mutant cell lines NCI-H358, MDA-MB231 and A375 grown as 3D spheroids under serum free conditions. […] Statistical comparisons were done using the average values across all three cell lines. […] Positive scores indicate synergistic drug interactions whereas negative scores would denote antagonistic drug interactions. A score of zero would indicate no antagonistic or synergistic effect. (D) Flow cytometric analysis of apoptosis in MDA-MB-231 cells. […] Benzethonium chloride and DMSO treated cells were used as positive and negative controls, respectively, for setting the gates. Percentage of total apoptotic cells (early and late stage) from two biological repeats (mean ± SD) is presented. Statistical analysis was performed using Fisher’s exact test comparing the total number of viable and apoptotic cells from two biological repeats. (E) Effect of inhibitors on cellular apoptosis studied using Caspase-3/7Glo assay. […] The caspase-3/7 activity was measured as a luminescence read-out and normalized to the vehicle control, 0.05% (v/v) DMSO. […] GAPDH detection was used as loading control.

[8] = test system: NCI-H358 (KRAS-G12C) 3D spheroids; experiment: 3D spheroid formation assay (alamarBlue), NCI-H358
Method: (§2) 3D spheroid formation assays were performed in 96-well low-attachment, suspension culture plates (cat. no. 655185, Cellstar, Greiner Bio-One) under serum free conditions. About 1000 cells per well were seeded in 50 μL RPMI medium (cat. no. 52400–025, Gibco, ThermoFisher Scientific) containing 0.5% (v/v) MethoCult (cat. no. SF H4636, Stemcell technologies), 1X B27 (cat. no. 17504044, Gibco, ThermoFisher Scientific), 25 ng/mL EGF (cat. no. E9644, Sigma-Aldrich) and 25 ng/ mL FGF (cat. no. RP-8628, ThermoFisher Scientific). Cells were cultured for 3 days and then treated with compounds or vehicle control (DMSO 0.1% (v/v) in growth medium) for another 3 days. The cells were supplemented with fresh growth medium on the third day together with the drug treatment. Spheroid formation efficiency was analyzed by alamarBlue assay reagent (cat. no. DAL1100, ThermoFisher Scientific).
(§3) A 10% (v/v) final volume of alamarBlue reagent was added to each well of the plate and incubated for 4 h at 37°C. Then the fluorescence intensity (λexcitation 560 ± 5 nm and λemission 590 ± 5 nm) was measured using the FLUOstar OPTIMA plate reader (BMG Labtech, Germany).
as §1, with “(A) Heatmap of ATARiS gene sensitivity scores of two KRAS dependent cell lines (NCI-H358 and MDA-MB-231) and a BRAF dependent cell line (A375). Negative” for “Negative”

[9] = test system: A375 (BRAF-V600E) 3D spheroids; experiment: 3D spheroid formation assay (alamarBlue), A375
Method: as §2, §3
as §1, with “(A) Heatmap of ATARiS gene sensitivity scores of two KRAS dependent cell lines (NCI-H358 and MDA-MB-231) and a BRAF dependent cell line (A375). Negative” for “Negative”

[10] = test system: MDA-MB-231 (KRAS-G13D) 3D spheroids; experiment: 3D spheroid formation assay (alamarBlue), MDA-MB-231
Method: as §2, §3
as §1, with “(A) Heatmap of ATARiS gene sensitivity scores of two KRAS dependent cell lines (NCI-H358 and MDA-MB-231) and a BRAF dependent cell line (A375). Negative” for “Negative”

[11] = A/D plasmid ratio 4/1, individual replicates N1.1-N3.4
[12] = A/D plasmid ratio 4/1, individual replicates N1.1-N2.4
[13] = K-RasG12V nanoclustering-BRET dose response (0.1–80 μM; OphA 0.3–20 μM), replicates
[14] = K-RasG12V nanoclustering-BRET, mean
[15] = H-RasG12V nanoclustering-BRET dose response (0.1–80 μM; OphA 0.3–20 μM), replicates
[16] = H-RasG12V nanoclustering-BRET, mean
[17] = early and late stage, replicates N1, N2
[18] = Homo sapiens, A-375, 72 h, A375 3D spheroids, serum free, 3 days treatment, replicates N1, N2
[19] = Homo sapiens, A-375, A375 3D spheroids, Mean, n = 2
[20] = Homo sapiens, NCI-H358, NCI-H358 3D spheroids, Mean, n = 2, read-out: IC50 values
[21] = NCI-H358 3D spheroids, serum free, 3 days treatment, replicates N1, N2, read-out: IC50 values
[22] = A375 3D spheroids, serum free, 3 days treatment, replicates N1, N2
[23] = Homo sapiens, MDA-MB-231, MDA-MB-231 3D spheroids, Mean, n = 2, read-out: IC50 values
[24] = MDA-MB-231 3D spheroids, serum free, 3 days treatment, replicates N1, N2, read-out: IC50 values

SMILES | K-RasG12V BRET [2, 11] | K-RasG12V BRET ([2]; mean) | H-RasG12V BRET [3, 12] | H-RasG12V BRET ([3]; mean) | DSS3 BRET score [2, 13] | DSS3 BRET score [2, 14] | DSS3 BRET score [3, 15] | DSS3 BRET score [3, 16] | IC50 [9, 18] [µM] | IC50 [9, 19] [µM] | other results
CC(=O)Nc1cccc(-n2c(=O)n(C3CC3)c(=O)c3c(Nc4ccc(I)cc4F)n(C)c(=O)c(C)c32)c1 [trametinib] |  |  |  |  |  |  |  |  |  |  | potency relative to Flu-M in MAPK-signaling (pERK) inhibition ([1]; MIA PaCa-2): at least 20 times; normalized pERK/ERK ratio % ([1]; 2 h, trametinib 1 μM, AMG-510 1 μM, calmidazolium 20 μM, DT-061 20 μM, combination each 10 μM, fluphenazine mustard 20 μM, replicates N1-N3): 32.0097% and 10.8438% and 18.176%; normalized pERK/ERK ratio % ([1]; same treatments, mean): 20.34%
COC(=O)[C@H](CCSC)NC(=O)c1ccc(NC[C@@H](N)CS)cc1-c1ccccc1 [FTI-277] | 72.2368 and 88.8749 and 88.6228 and 90.7219 and 73.1065 and 73.006 and 71.9005 and 74.3032 and 75.1082 and 75.0152 and 73.992 and 87.4754 | 78.7 | 55.9675 and 54.6788 and 57.991 and 55.5016 and 58.8518 and 57.6476 and 60.7427 and 58.4164 | 57.47 |  |  |  |  |  |  | 
OCCN1CCN(CCCN2c3ccccc3Sc3ccc(C(F)(F)F)cc32)CC1 [fluphenazine] | 116.984 and 104.752 and 101.237 and 99.6761 and 117.221 and 114.254 and 111.203 and 106.486 and 102.332 and 104.758 and 105.192 and 105.738 | 107.49 | 118.298 and 116.824 and 118.266 and 116.921 and 102.254 and 101.937 and 104.771 and 99.5349 | 109.85 | 0 | 0 | 0 | 0 |  |  | effect on the RasG12V-BRET signals (in words) ([2]; K-RasG12V and H-RasG12V biosensors): Neither the PP2A activator DT-061, nor Flu had an effect; 2D monolayer DSS3 ([4]; Mean): 28.4; 2D monolayer DSS3 ([4]; replicates N1-N3): 26.6 and 29.8 and 28.8; 2D monolayer DSS3 ([5]; Mean): 46.37; 2D monolayer DSS3 ([5]; replicates N1-N3): 33.6 and 46.1 and 59.4; 2D monolayer DSS3 ([6]; Mean): 9.5; 2D monolayer DSS3 ([6]; replicates N1-N3): 9.9 and 9.2 and 9.4
CC(C)=C[C@H]1C[C@H](C)[C@]2(CC[C@]3(C)C[C@H]4[C@H](C(=O)C[C@@]4(C)O)/C(C=O)=C\C[C@H]32)O1 [ophiobolin A] |  | 75.39 |  | 87.26 | 21.8 and 20.9 | 21.35 | 7.5 and 2.2 | 4.85 |  |  | 
CC(C)(C)CC(C)(C)c1ccc(OCCOCC[N+](C)(C)Cc2ccccc2)cc1 [benzethonium Cl, Benzethonium chloride] |  |  |  |  |  |  |  |  |  |  | apoptotic cells (%) [7, 17]: 93.0493% and 96.0998%; apoptotic cells (%) ([7]; mean): 94.57%
C=CC(=O)N1CCN(c2ncnc3c(F)c(-c4c(O)cccc4F)c(Cl)cc23)CC1 [ARS-1620] |  |  |  |  |  |  |  |  | > 40 | > 40 | IC50 ([8]; Homo sapiens, NCI-H358, 72 h, read-out: IC50 values, NCI-H358 3D spheroids, serum free, 3 days treatment, replicates N1, N2): 0.6 µM; IC50 ([8]; Homo sapiens, NCI-H358, read-out: IC50 values, NCI-H358 3D spheroids, Mean, n = 2): 0.46 µM; IC50 ([8]; read-out: IC50 values, NCI-H358 3D spheroids, serum free, 3 days treatment, replicates N1, N2): 0.32 µM; IC50 ([10]; Homo sapiens, MDA-MB-231, 72 h, read-out: IC50 values): > 40 µM; IC50 ([10]; Homo sapiens, MDA-MB-231, read-out: IC50 values): > 40 µM
CN1CCN(CCCN2c3ccccc3Sc3ccc(C(F)(F)F)cc32)CC1 [triflouperazine, trifluoperazine] |  |  |  |  |  |  |  |  | 0.25 | 0.31 | IC50 [8, 20]: 0.69 µM; IC50 [8, 21]: 0.39 µM and 0.98 µM; IC50 [9, 22]: 0.36 µM; IC50 ([10]; Homo sapiens, MDA-MB-231, 72 h, MDA-MB-231 3D spheroids, serum free, 3 days treatment, replicates N1, N2, read-out: IC50 values): 0.43 µM; IC50 [10, 23]: 0.59 µM; IC50 [10, 24]: 0.74 µM
Clc1ccc(C(c2ccc(Cl)cc2)n2cc[n+](CC(OCc3ccc(Cl)cc3Cl)c3ccc(Cl)cc3Cl)c2)cc1 (stereo not shown) [calmidazolium] | 56.1219 and 37.0972 and 36.7653 and 36.0615 and 56.3093 and 55.7392 and 55.8068 and 41.7975 and 44.4475 and 43.3047 and 43.8108 and 37.7034 | 45.41 | 65.4602 and 65.6531 and 66.0593 and 64.447 and 71.623 and 67.855 and 69.3028 and 69.9269 | 67.54 | 7.4 and 5.3 and 6.1 | 6.27 | 4.1 and 3.4 | 3.75 | 1.1 | 1.31 | IC50 ([8]; Homo sapiens, NCI-H358, 72 h, NCI-H358 3D spheroids, serum free, 3 days treatment, replicates N1, N2, read-out: IC50 values): 1.3 µM; IC50 [8, 20]: 1.3 µM; IC50 [8, 21]: 1.29 µM; IC50 [9, 22]: 1.51 µM; IC50 [10, 23]: 1.37 µM; IC50 [10, 24]: 0.83 µM and 1.9 µM; apoptotic cells (%) [7, 17]: 46.8015% and 19.4293%; apoptotic cells (%) ([7]; mean): 33.12%; normalized pERK/ERK ratio % ([1]; 2 h, trametinib 1 μM, AMG-510 1 μM, calmidazolium 20 μM, DT-061 20 μM, combination each 10 μM, fluphenazine mustard 20 μM, replicates N1-N3, listed as camidazolium): 79.2728% and 51.9352% and 71.8958%
